Reference: the supplement of paper PMC11208160

experiment: recombinant barcode read abundance after kanamycin selection (control-corrected) (log10(CPM+1)); higher = more efficient recombination; sequences stand for … in AGTGCAGAGAAAATCGGCCAGTTTTCTCTGCCTGCAGTCCGCATGCCGT…ATTTATGCAGCGGACTGCCTTTCTCCCAAAGTGATAAACCGGACAGTATCATGGACCGGTTTTCCCGGTAATCCGTATTTGCAAGGTTGGTTTCACT; site = the 11-nt target
Summary of the method: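 A promoter, a target, a barcode and the first 104 bridge RNA bases under J23119 made up each oligo. Oligos were Gibson-cloned into a vector bearing the other 73 bp and a T7-inducible recombinase, then co-electroporated into E. coli with a donor plasmid and plated in duplicate on chloramphenicol/ampicillin LB agar (control) or chloramphenicol/ampicillin/kanamycin with 0.1 mM IPTG. Recombination efficiency is the averaged, control-corrected counts per million of recombinant-junction barcodes. Reported values are log10(CPM+1).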

Sequence | recombinant barcode read abundance (log10)
TGATACCATTGGGTTCTAACCTGTTGCGTAT [TGATACCCTAC_LTGcore_AT_RTGcore_AT] (site TGATACCCTAC) (LTG core: AT, RTG core: AT) | 0.0803
TGATACCCCTGGGTTCTAACCTGTTGCGTGG [TGATACCCTAC_LTGcore_CC_RTGcore_CC] (site TGATACCCTAC) (LTG core: CC, RTG core: CC) | 0.351
TGATACCCTTGGGTTCTAACCTGTTGCGTGC [TGATACCCTAC_LTGcore_CT_RTGcore_GC] (site TGATACCCTAC) (LTG core: CT, RTG core: GC) | 1.67
TGATACCCTTGGGTTCTAACCTGTTGCGTGT [TGATACCCTAC_LTGcore_CT_RTGcore_AC] (site TGATACCCTAC) (LTG core: CT, RTG core: AC) | 0.0827
TGATACCCTTGGGTTCTAACCTGTTGCGTTC [TGATACCCTAC_LTGcore_CT_RTGcore_GA] (site TGATACCCTAC) (LTG core: CT, RTG core: GA) | 0.335
TGATACCCTTGGGTTCTAACCTGTTGCGTTT [TGATACCCTAC_LTGcore_CT_RTGcore_AA] (site TGATACCCTAC) (LTG core: CT, RTG core: AA) | 0.666
TGATACCGCTGGGTTCTAACCTGTTGCGTAG [TGATACCCTAC_LTGcore_GC_RTGcore_CT] (site TGATACCCTAC) (LTG core: GC, RTG core: CT) | 0.164
TGATACCTCTGGGTTCTAACCTGTTGCGTAG [TGATACCCTAC_LTGcore_TC_RTGcore_CT] (site TGATACCCTAC) (LTG core: TC, RTG core: CT) | 0.146
TGATACCTTTGGGTTCTAACCTGTTGCGTAG [TGATACCCTAC_LTGcore_TT_RTGcore_CT] (site TGATACCCTAC) (LTG core: TT, RTG core: CT) | 0.0115
TGTATTCAGTGGGTTCTAACCTGTTGCCTAG [TGTATTCCTAG_LTGcore_AG_RTGcore_CT] (site TGTATTCCTAG) (LTG core: AG, RTG core: CT) | 0.0134
TGTATTCATTGGGTTCTAACCTGTTGCCTAT [TGTATTCCTAG_LTGcore_AT_RTGcore_AT] (site TGTATTCCTAG) (LTG core: AT, RTG core: AT) | 0.144
TGTATTCCATGGGTTCTAACCTGTTGCCTTG [TGTATTCCTAG_LTGcore_CA_RTGcore_CA] (site TGTATTCCTAG) (LTG core: CA, RTG core: CA) | 0.579
TGTATTCCGTGGGTTCTAACCTGTTGCCTAG [TGTATTCCTAG_LTGcore_CG_RTGcore_CT] (site TGTATTCCTAG) (LTG core: CG, RTG core: CT) | 0.356
TGTATTCCGTGGGTTCTAACCTGTTGCCTCG [TGTATTCCTAG_LTGcore_CG_RTGcore_CG] (site TGTATTCCTAG) (LTG core: CG, RTG core: CG) | 0.0909
TGTATTCCTTGGGTTCTAACCTGTTGCCTAC [TGTATTCCTAG_LTGcore_CT_RTGcore_GT] (site TGTATTCCTAG) (LTG core: CT, RTG core: GT) | 0.0923
TGTATTCCTTGGGTTCTAACCTGTTGCCTCA [TGTATTCCTAG_LTGcore_CT_RTGcore_TG] (site TGTATTCCTAG) (LTG core: CT, RTG core: TG) | 0.1

Sequence | recombinant barcode read abundance (log10)
TGTATTCCTTGGGTTCTAACCTGTTGCCTCT [TGTATTCCTAG_LTGcore_CT_RTGcore_AG] (site TGTATTCCTAG) (LTG core: CT, RTG core: AG) | 0.0303
TGTATTCCTTGGGTTCTAACCTGTTGCCTTG [TGTATTCCTAG_LTGcore_CT_RTGcore_CA] (site TGTATTCCTAG) (LTG core: CT, RTG core: CA) | 0.0735
TGTATTCTCTGGGTTCTAACCTGTTGCCTAG [TGTATTCCTAG_LTGcore_TC_RTGcore_CT] (site TGTATTCCTAG) (LTG core: TC, RTG core: CT) | 0.0135
TTATAAAAATGGGTTCTAACCTGTTGCCTTT [TTATAAACTAG_LTGcore_AA_RTGcore_AA] (site TTATAAACTAG) (LTG core: AA, RTG core: AA) | 0.038
TTATAAAACTGGGTTCTAACCTGTTGCCTAG [TTATAAACTAG_LTGcore_AC_RTGcore_CT] (site TTATAAACTAG) (LTG core: AC, RTG core: CT) | 0.39
TTATAAAATTGGGTTCTAACCTGTTGCCTAG [TTATAAACTAG_LTGcore_AT_RTGcore_CT] (site TTATAAACTAG) (LTG core: AT, RTG core: CT) | 0.0851
TTATAAAATTGGGTTCTAACCTGTTGCCTAT [TTATAAACTAG_LTGcore_AT_RTGcore_AT] (site TTATAAACTAG) (LTG core: AT, RTG core: AT) | 0.124
TTATAAACCTGGGTTCTAACCTGTTGCCTGG [TTATAAACTAG_LTGcore_CC_RTGcore_CC] (site TTATAAACTAG) (LTG core: CC, RTG core: CC) | 0.0325
TTATAAACTTGGGTTCTAACCTGTTGCCTAC [TTATAAACTAG_LTGcore_CT_RTGcore_GT] (site TTATAAACTAG) (LTG core: CT, RTG core: GT) | 0.944
TTATAAACTTGGGTTCTAACCTGTTGCCTAT [TTATAAACTAG_LTGcore_CT_RTGcore_AT] (site TTATAAACTAG) (LTG core: CT, RTG core: AT) | 0.302
TTATAAACTTGGGTTCTAACCTGTTGCCTGG [TTATAAACTAG_LTGcore_CT_RTGcore_CC] (site TTATAAACTAG) (LTG core: CT, RTG core: CC) | 0.574
TTATAAACTTGGGTTCTAACCTGTTGCCTTT [TTATAAACTAG_LTGcore_CT_RTGcore_AA] (site TTATAAACTAG) (LTG core: CT, RTG core: AA) | 0.0604
TTATAAAGTTGGGTTCTAACCTGTTGCCTAG [TTATAAACTAG_LTGcore_GT_RTGcore_CT] (site TTATAAACTAG) (LTG core: GT, RTG core: CT) | 0.109
TTATAAATATGGGTTCTAACCTGTTGCCTTA [TTATAAACTAG_LTGcore_TA_RTGcore_TA] (site TTATAAACTAG) (LTG core: TA, RTG core: TA) | 0.855
TTATAAATGTGGGTTCTAACCTGTTGCCTAG [TTATAAACTAG_LTGcore_TG_RTGcore_CT] (site TTATAAACTAG) (LTG core: TG, RTG core: CT) | 0.083
TTATAAATTTGGGTTCTAACCTGTTGCCTAG [TTATAAACTAG_LTGcore_TT_RTGcore_CT] (site TTATAAACTAG) (LTG core: TT, RTG core: CT) | 0.0473
